Reference: patent US20110053982A1, “ETHER BENZYLIDENE PIPERIDINE 5-MEMBERED ARYL CARBOXAMIDE COMPOUNDS USEFUL AS FAAH INHIBITORS” (PFIZER INC., priority 2008, published 2011)
Read-outs that look alike come from different tables or passages of the source.

Assays:
Human FAAH = target: T1, Human FAAH (Homo sapiens, UniProt O00519); test: FAAH assay, kinetic analysis of irreversible inhibition (kinact/Ki); assay type: biochemical
T1 construct: made in house
T1 sequence (O00519 32-579 limits assumed): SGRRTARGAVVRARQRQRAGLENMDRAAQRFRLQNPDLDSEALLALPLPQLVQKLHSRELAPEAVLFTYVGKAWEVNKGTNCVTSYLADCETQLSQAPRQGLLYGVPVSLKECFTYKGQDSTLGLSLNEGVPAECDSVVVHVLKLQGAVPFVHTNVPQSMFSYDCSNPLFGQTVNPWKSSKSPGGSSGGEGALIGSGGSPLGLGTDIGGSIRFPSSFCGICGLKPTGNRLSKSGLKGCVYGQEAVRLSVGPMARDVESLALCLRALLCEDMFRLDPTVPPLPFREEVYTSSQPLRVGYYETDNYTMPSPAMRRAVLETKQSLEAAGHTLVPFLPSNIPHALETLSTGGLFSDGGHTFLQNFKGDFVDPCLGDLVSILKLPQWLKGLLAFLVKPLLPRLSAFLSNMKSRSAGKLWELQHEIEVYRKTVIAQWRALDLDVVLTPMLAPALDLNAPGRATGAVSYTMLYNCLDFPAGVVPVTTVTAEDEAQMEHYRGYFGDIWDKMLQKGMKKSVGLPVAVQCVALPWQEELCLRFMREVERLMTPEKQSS
Procedure: A FAAH assay may be carried out in 384-well clear polystyrene plates in a total volume of 50 μl per well. All percents are by volume. To each well is placed the reaction mixture (40 μl) containing 1-4 nM FAAH, 50 mM NaPi, pH 7.4, 3 mM α-ketoglutarate, 0.15 mM NADH, 7.5 U/ml glutamate dehydrogenase, 2 mM ADP, 1 mM EDTA, and 0.1% Triton X-100 (The concentration shown for each component is the final concentration in the assay). To this mixture is added 5 μl of a compound of Examples 1 to 20 at various concentrations prepared in 50% DMSO (or 5 μl 50% DMSO for controls). This is immediately followed by the addition of 5 μl oleamide (500 μM) dissolved in […] and the reaction mixture is mixed for 1.5 min. The final concentrations of DMSO and EtOH in the assay are each 7.5%. The reactions is then incubated at 30° C. and the absorbance at 340 nm is collected over a period of 90 min with readings taken in 30-second intervals using SpectraMax Plus^384 Microplate Spectrophotometer (Molecular Devices, Sunnyvale, Calif.). Human FAAH used in the assay is prepared as described in the patent application WO 2006/067613. The purity of the enzyme used is preferably greater than 98% based on an analysis by SDS-polyacrylamide gel electrophoresis followed by Coomassie Blue staining.
Initial velocity data (V) is obtained from the slopes of the initial progressive curves. They are plotted as a function of substrate concentration and fit to the Michaelis-Menten equation (1) using Prism (GraphPad Software, Inc., San Diego, Calif.) software to obtain Km and Vmax values.
To obtain potencies of irreversible inhibitors, progressive curves consistent with first order inhibition kinetics (two-step irreversible inhibition mechanism) are fit to equation (2) by nonlinear least squares regressions to determine kobs values at each inhibitor concentration, where [P]t is the absorbance at time t, V0 is a constant related to the steady state rate of the uninhibited reaction, and kobs is the first order rate constant for enzyme inactivation. The inhibitor dissociation constant (Ki) and the first order rate
constant of enzyme inactivation at infinite inhibitor concentration (kinact) are then obtained by fitting the kobs vs. [I] curves to equation (3).

rFAAH = target: T2, rFAAH (Rattus norvegicus, UniProt P97612); test: FAAH assay, rFAAH kobs/I; assay type: biochemical; details: additional data table, unit not given
T2 sequence (P97612 1-579): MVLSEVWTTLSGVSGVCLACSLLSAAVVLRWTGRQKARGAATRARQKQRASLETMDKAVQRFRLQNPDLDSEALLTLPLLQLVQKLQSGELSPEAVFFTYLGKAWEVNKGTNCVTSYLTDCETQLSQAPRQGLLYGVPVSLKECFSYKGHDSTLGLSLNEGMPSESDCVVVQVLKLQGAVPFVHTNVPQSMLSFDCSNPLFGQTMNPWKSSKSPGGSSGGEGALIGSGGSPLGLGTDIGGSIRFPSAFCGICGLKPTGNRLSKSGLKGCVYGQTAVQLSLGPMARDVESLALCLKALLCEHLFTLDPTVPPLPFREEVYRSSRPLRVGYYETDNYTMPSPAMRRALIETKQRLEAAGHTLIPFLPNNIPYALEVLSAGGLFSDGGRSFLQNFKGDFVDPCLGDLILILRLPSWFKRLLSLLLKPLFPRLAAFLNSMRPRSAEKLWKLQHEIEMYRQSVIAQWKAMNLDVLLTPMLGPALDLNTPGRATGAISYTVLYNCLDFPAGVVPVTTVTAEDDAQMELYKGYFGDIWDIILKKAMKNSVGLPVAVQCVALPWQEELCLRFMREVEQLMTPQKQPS

[1] = additional data table, unit inferred, read-out: hFAAH_Kinact/Ki

SMILES	kinact/KI (Human FAAH; [1]) [M⁻¹ s⁻¹]	FAAH_KINACTR:rFAAH:kobs/I (rFAAH)	kinact/KI (Human FAAH; oleamide substrate, 30° C., pH 7.4, read-out: hFAAH KInact/KI) [M⁻¹ s⁻¹]
CCCCOc1cccc(C=C2CCN(C(=O)Nc3onc(C)c3C)CC2)c1 [4-(3-butoxybenzylidene)-N-(3,4-dimethylisoxazol-5-yl)piperidine-1-carboxamide]	14800	2820	
CCCCOc1cccc(C=C2CCN(C(=O)Nc3cnoc3C)CC2)c1 [4-(3-butoxybenzylidene)-N-(5-methylisoxazol-4-yl)piperidine-1-carboxamide]	2120	12.9	
Cc1noc(NC(=O)N2CCC(=Cc3cccc(OCCC4CC4)c3)CC2)c1C [4-[3-(2-cyclopropylethoxy)benzylidene]-N-(3,4-dimethylisoxazol-5-yl)piperidine-1-carboxamide]	12900	2660	
Cc1oncc1NC(=O)N1CCC(=Cc2cccc(OCCOC(C)C)c2)CC1 [4-[3-(2-isopropoxyethoxy)benzylidene]-N-(5-methylisoxazol-4-yl)piperidine-1-carboxamide]	2670	<12.6	
Cc1oncc1NC(=O)N1CCC(=Cc2cccc(OCCCc3cnoc3)c2)CC1 [4-[3-(3-isoxazol-4-ylpropoxy)benzylidene]-N-(5-methylisoxazol-4-yl)piperidine-1-carboxamide]	3990	<13.2	
Cc1noc(NC(=O)N2CCC(=Cc3cccc(OCC4CCCC4)c3)CC2)c1C [4-[3-(cyclopentylmethoxy)benzylidene]-N-(3,4-dimethylisoxazol-5-yl)piperidine-1-carboxamide]	5110	2360	
Cc1oncc1NC(=O)N1CCC(=Cc2cccc(OCC3CCCC3)c2)CC1 [4-[3-(cyclopentylmethoxy)benzylidene]-N-(5-methylisoxazol-4-yl)piperidine-1-carboxamide]	838	<10.0	
Cc1oncc1NC(=O)N1CCC(=Cc2cccc(OCCc3cccc(F)c3)c2)CC1 [4-{3-[2-(3-fluorophenyl)ethoxy]benzylidene}-N-(5-methylisoxazol-4-yl)piperidine-1-carboxamide]	11000	59.9	
Cc1oncc1NC(=O)N1CCC(=Cc2cccc(OCCc3ccc(F)cc3)c2)CC1 [4-{3-[2-(4-fluorophenyl)ethoxy]benzylidene}-N-(5-methylisoxazol-4-yl)piperidine-1-carboxamide]	1480	52.7	
Cc1noc(NC(=O)N2CCC(=Cc3cccc(OCC4CCC(F)(F)CC4)c3)CC2)c1C [4-{3-[(4,4-difluorocyclohexyl)methoxy]benzylidene}-N-(3,4-dimethylisoxazol-5-yl)piperidine-1-carboxamide]	3970	5360	
Cc1oncc1NC(=O)N1CCC(=Cc2cccc(OCC3CCC(F)(F)CC3)c2)CC1 [4-{3-[(4,4-difluorocyclohexyl)methoxy]benzylidene}-N-(5-methylisoxazol-4-yl)piperidine-1-carboxamide]	1730	16.2	
Cc1noc(NC(=O)N2CCC(=Cc3cccc(OC4CCC(F)(F)CC4)c3)CC2)c1C [4-{3-[(4,4-difluorocyclohexyl)oxy]benzylidene}-N-(3,4-dimethylisoxazol-5-yl)piperidine-1-carboxamide]	2540	1750	
Cc1oncc1NC(=O)N1CCC(=Cc2cccc(OC3CCC(F)(F)CC3)c2)CC1 [4-{3-[(4,4-difluorocyclohexyl)oxy]benzylidene}-N-(5-methylisoxazol-4-yl)piperidine-1-carboxamide]	2900	19.8	
O=C(Nc1cnoc1)N1CCC(=Cc2cccc(OC3CCC(F)(F)CC3)c2)CC1 [4-{3-[(4,4-difluorocyclohexyl)oxy]benzylidene}-N-isoxazol-4-ylpiperidine-1-carboxamide]	1530	<10.0	
Cc1noc(NC(=O)N2CCC(=Cc3cccc(OC4CCC(C)(C)CC4)c3)CC2)c1C [4-{3-[(4,4-dimethylcyclohexyl)oxy]benzylidene}-N-(3,4-dimethylisoxazol-5-yl)piperidine-1-carboxamide]	959	4910	
Cc1oncc1NC(=O)N1CCC(=Cc2cccc(OC3CCC(C)(C)CC3)c2)CC1 [4-{3-[(4,4-dimethylcyclohexyl)oxy]benzylidene}-N-(5-methylisoxazol-4-yl)piperidine-1-carboxamide]	2860	160	
Cc1noc(NC(=O)N2CCC(=Cc3cccc(OCC4CCCCO4)c3)CC2)c1C (centres unmarked) [Example 1, N-(3,4-dimethylisoxazol-5-yl)-4-[3-(tetrahydro-2H-pyran-2-ylmethoxy)benzylidene]piperidine-1-carboxamide]			5450
Cn1nnnc1NC(=O)N1CCC(=Cc2cccc(OCC3CCCCO3)c2)CC1 (centres unmarked) [N-(1-methyl-1H-tetrazol-5-yl)-4-[3-(tetrahydro-2H-pyran-2-ylmethoxy)benzylidene]piperidine-1-carboxamide]	7490	1610	
Cc1noc(NC(=O)N2CCC(=Cc3cccc(OC(C)Cc4ccccc4)c3)CC2)c1C (centres unmarked) [N-(3,4-dimethylisoxazol-5-yl)-4-[3-(1-methyl-2-phenylethoxy)benzylidene]piperidine-1-carboxamide]	3410	10600	
CCCC(C)Oc1cccc(C=C2CCN(C(=O)Nc3onc(C)c3C)CC2)c1 (centres unmarked) [N-(3,4-dimethylisoxazol-5-yl)-4-[3-(1-methylbutoxy)benzylidene]piperidine-1-carboxamide]	4600	4610	
Cc1noc(NC(=O)N2CCC(=Cc3cccc(OCCOC(C)C)c3)CC2)c1C [N-(3,4-dimethylisoxazol-5-yl)-4-[3-(2-isopropoxyethoxy)benzylidene]piperidine-1-carboxamide]	12700	4760	
Cc1noc(NC(=O)N2CCC(=Cc3cccc(OCCCc4cnoc4)c3)CC2)c1C [N-(3,4-dimethylisoxazol-5-yl)-4-[3-(3-isoxazol-4-ylpropoxy)benzylidene]piperidine-1-carboxamide]	7170	2580	
Cc1noc(NC(=O)N2CCC(=Cc3cccc(OCCC(C)C)c3)CC2)c1C [N-(3,4-dimethylisoxazol-5-yl)-4-[3-(3-methylbutoxy)benzylidene]piperidine-1-carboxamide]	7710	2590	
Cc1noc(NC(=O)N2CCC(=Cc3cccc(OCC(C)CC(F)(F)F)c3)CC2)c1C (centres unmarked) [N-(3,4-dimethylisoxazol-5-yl)-4-[3-(4,4,4-trifluoro-2-methylbutoxy)benzylidene]piperidine-1-carboxamide]	5190	2530	
